{"source": "paper PMC5339874", "about": "“Fluorene-9-bisphenol is anti-oestrogenic and may cause adverse pregnancy outcomes in mice” (Nature Communications, 2017)", "key": {"rats and mice": {"system": "rats and mice", "design": "method as in PMID 21438738, PMID 12075117, PMID 18445619", "conditions": "cited from earlier work"}, "oestrogen receptor α": {"system": "oestrogen receptor α", "design": "method as in PMID 22927406", "conditions": "in the presence of E2; cited from earlier work"}, "[1]": {"system": "intact female BALB/c mice", "design": "method as in PMID 9359486", "conditions": "28 days of oral administration, intact female BALB/c mice ∼50 days old; cited from earlier work"}, "female CD-1 mice [2]": {"system": "female CD-1 mice", "test": "Improved anti-uterotrophic assay, daily oral gavage for 10 days beginning on PND 24", "assay_type": "in vivo", "conditions": "daily oral gavage for 10 days", "protocol": "The animals were fed ad libitum with a basic diet from the Laboratory Animal Center of the Academy of Military Medical Sciences (Beijing, China), and drinking water was provided ad libitum. […] The volume of vehicle or chemical solutions administered was adjusted daily based on body weight measured during the dosing period according to the volume-body weight ratio of 5 ml kg^−1 bw."}, "female CD-1 mice [3]": {"system": "female CD-1 mice", "test": "Exposure experiment through drinking water", "assay_type": "in vivo", "conditions": "10-day exposure via drinking water", "protocol": "Mice with a maximal difference in body weight of 1 g were selected for the experiments and randomly assigned to either the treatment or control groups. […] The animals were fed ad libitum an oestrogen-free diet from Trophic Animal Feed High-tech Co., Ltd. (Nantong, China), and drinking water was provided ad libitum in glass bottles. Before the experiments, the mice were randomly assigned to five groups (n=8). Ultra-pure water was used as a control. FULV was dissolved in ultra-pure water to a concentration of 100 ng l^−1 and used as a positive control. […] Two plastic drinking bottles labelled ‘BPA-free', of different brands, were purchased and denoted Bottle A and Bottle B. The plastic bottles were filled with boiling ultra-pure water from a stainless steel electric water heater and allowed to cool down to room temperature before the animal experiment. The BHPF levels in the cooled boiled waters from Bottle A, Bottle B and the stainless steel electric water heater were determined by GC–MS. No BHPF was detected in the cooled boiled water from the stainless steel electric water heater. The cooled boiled waters from Bottle A and Bottle B were transferred to glass bottles during the experiment. The exposure experiment was performed for 10 days beginning on PND 24. After the period of exposure, the mice were weighed and killed in turns for each group, whereby in each turn only one mouse in a group was killed. Blood was collected by cardiac puncture soon after each animal was killed, and the uteri were removed, blotted and weighed by one experimenter to reduce the risk of bias in the data collection and immediately frozen in liquid nitrogen for gene expression analysis. The relative uterine weight was calculated to evaluate the anti-uterotrophic activity. […] The serum BHPF levels were analysed by GC–MS using the same method as that for human serum. The gene expressions of sprr2a and sprr2b in the uteri were determined by Q-RT-PCR."}, "rats": {"system": "rats", "design": "method as in PMID 8773425", "conditions": "oral, before implantation on day 2 of pregnancy; cited from earlier work"}, "CD-1 mice": {"system": "CD-1 mice", "test": "Subchronic and reproductive toxicity tests", "conditions": "mouse, in vivo", "protocol": "Immature CD-1 mice (20 days old) were obtained from Experimental Animal Tech Co. of Weitonglihua (Beijing, China) and acclimatized in an experimental environment with a temperature of 22 °C±2 °C, relative humidity between 40 and 60%, and artificial lighting in a 12 h/12 h light-dark cycle. The animals were fed ad libitum with a basic diet from the Laboratory Animal Center of the Academy of Military Medical Sciences (Beijing, China), and drinking water was provided ad libitum. […] The animals were housed five to a cage until the pairing date. The treatment via oral gavage of each mouse was performed once every 3 days beginning on PND 24. The chemicals were dissolved in peanut oil to the appropriate concentrations. The volume of vehicle or chemical solutions administered was adjusted daily based on body weight measured during the dosing period according to the volume-body weight ratio of 5 ml kg^−1 bw. On PND 60, 10 females of each group were weighed and killed by cervical dislocation. The uteri, ovaries, livers, kidneys and spleens were weighed and collected for histological analysis. At the age of PND 77, males and females were paired. Each morning, the females were examined for the presence of vaginal plugs. Gestational day 1 was defined as the day on which a vaginal plug was found. In cases where pairing was unsuccessful, females were re-mated with proven males of the same group, except that females in the 1.2 mg kg^−1 TAM group were re-mated with proven males of the control group. After a 7-day mating period, the males were weighed and killed, and organs were weighed and collected for further analysis. Cauda epididymal sperm was collected from each mouse and observed under a trinocular microscope (Olympus BX53) in physiological saline. A microscopic video was recorded and analysed for sperm quality evaluation. The treatment via oral gavage was continued for the females until day 19 of pregnancy. On post-partum days 0 and 4, the weights of the dams and pups were recorded and the pups were checked for abnormalities. On post-partum day 4, the dams were weighed and killed, and their organs were weighed and collected for further analysis. The ovaries and uteri were examined for the numbers of corpora lutea and implantation sites, respectively. Finally, the non-pregnant and nulliparous females were killed for histopathological analysis. For histological examination, organs and tissues were fixed in formalin fixation, embedded in paraffin, and sectioned serially at 5 μm. Slides were stained with hematoxylin and eosin (H&E), and observed under a light microscope (Olympus BX53)."}}, "data": [{"smiles": "CC(C)(c1ccc(O)cc1)c1ccc(O)cc1", "note": "[BPA, bisphenol A]", "values": [{"measurement": "reproductive/developmental NOAEL", "setting": "rats and mice", "result": 50, "unit": "mg kg^−1 bw day^−1"}, {"measurement": "systemic no-observed-adverse-effect level (NOAEL)", "setting": "rats and mice", "result": 5, "unit": "mg kg^−1 bw day^−1"}]}, {"smiles": "Cc1cc(C(C)(C)c2ccc(O)c(C)c2)ccc1O", "note": "[BPC, bisphenol C]", "values": [{"measurement": "antagonistic activity", "setting": "oestrogen receptor α", "result": "almost full antagonistic activity"}]}, {"smiles": "CC1=C(c2ccc(OC(=O)C(C)(C)C)cc2)[C@H](c2ccc(OCCN3CCCCC3)cc2)Oc2cc(OC(=O)C(C)(C)C)ccc21", "note": "[EM-800]", "values": [{"measurement": "effect on uterus", "setting": "[1]", "result": "reduce uterine weights and cause atrophy of the endometrium"}]}, {"smiles": "C[C@]12CC[C@@H]3c4ccc(O)cc4C[C@@H](CCCCCCCCC[S+]([O-])CCCC(F)(F)C(F)(F)F)[C@H]3[C@@H]1CC[C@@H]2O", "note": "(stereo partly shown) [FULV, fulvestrant]", "values": [{"measurement": "relative uterine weights", "setting": "female CD-1 mice [2]", "result": "decreased in a dose-dependent manner"}, {"measurement": "relative uterine weight, % that of the control", "setting": "female CD-1 mice [3]; 100 ng l^−1 BHPF or FULV, Bottle A 124.35, Bottle B 23.81 ng l^−1 BHPF, P>0.05", "result": "77.89%±37.50"}, {"measurement": "expression of sprr2a in the uteri (Q-RT-PCR)", "setting": "female CD-1 mice [3]; no statistically significant difference (P>0.05)", "result": "decreased"}, {"measurement": "expression of sprr2b in the uteri (Q-RT-PCR)", "setting": "female CD-1 mice [3]; vs control", "result": "significantly lower"}]}, {"smiles": "CN(C)CCOc1ccc([C@H]2C[C@]3(C)[C@@H](O)CC[C@H]3[C@@H]3CCc4cc(O)ccc4[C@H]32)cc1", "note": "[RU39411]", "values": [{"measurement": "reproductive effects, high doses", "setting": "rats", "result": "prevented pregnancy in all animals"}, {"measurement": "reproductive effects, low doses", "setting": "rats", "result": "reduced the litter sizes and weights and induced embryonic absorption in some animals"}]}, {"smiles": "CC/C(=C(\\c1ccccc1)c1ccc(OCCN(C)C)cc1)c1ccccc1", "note": "[TAM, tamoxifen, reference compound]", "values": [{"measurement": "reproductive effects, high doses", "setting": "rats", "result": "prevented pregnancy in all animals"}, {"measurement": "reproductive effects, low doses", "setting": "rats", "result": "reduced the litter sizes and weights and induced embryonic absorption in some animals"}, {"measurement": "analysis of ovary sections", "setting": "CD-1 mice", "result": "retarded follicular development and reduced the numbers of corpora lutea"}, {"measurement": "histopathological examination of ovaries", "setting": "CD-1 mice", "result": "haemorrhagic ovary cysts occurred"}, {"measurement": "histopathological examination of uteri", "setting": "CD-1 mice", "result": "serious atrophic endometria"}, {"measurement": "sperm quality", "setting": "CD-1 mice", "result": "No obvious adverse effects"}]}]}
